Assay results from article PMC8364686, “Safety, tolerability, pharmacokinetics and pharmacodynamics of single oral doses of BI 187004, an inhibitor of 11beta-hydroxysteroid dehydrogenase-1, in healthy male volunteers with overweight or obesity” (Clinical Diabetes and Endocrinology, 2021).

Assay: Plasma pharmacokinetics of BI 187004 after single oral doses (LC–MS/MS)
Conditions: male, human, plasma, po; for concentration at 6 h: planned time 6 h; for concentration at 8 h: planned time 8 h; for concentration at 10 h: planned time 10 h; for concentration at 12 h: planned time 12 h; for concentration at 36 h: planned time 36 h; for concentration at 48 h: planned time 48 h; for concentration at 72 h: planned time 72 h; for concentration at 96 h: planned time 96 h; for concentration at 0.5 h: planned time 0.5 h; for concentration at 1 h: planned time 1 h; for concentration at 1.5 h: planned time 1.5 h; for concentration at 2 h: planned time 2 h; for concentration at 2.5 h: planned time 2.5 h; for concentration at 3 h: planned time 3 h; for concentration at 4 h: planned time 4 h; for concentration at 5 h: planned time 5 h
[1] = 240 mg, BI 187004 plasma concentrations, gMean, 240 mg single oral
[2] = 360 mg, BI 187004 plasma concentrations, 360 mg single oral, individual subjects
[3] = 360 mg, BI 187004 plasma concentrations, Max, 360 mg single oral
[4] = 360 mg, BI 187004 plasma concentrations, Mean, 360 mg single oral
[5] = 360 mg, BI 187004 plasma concentrations, Median, 360 mg single oral
[6] = 360 mg, BI 187004 plasma concentrations, Min, 360 mg single oral
[7] = 360 mg, BI 187004 plasma concentrations, gMean, 360 mg single oral

## N#Cc1ccc2c(c1)[C@H]1CCCN(C(=O)c3ccc4[nH]cnc4c3)[C@H]1C2 [BI 187004]
[1]
  concentration at 6 h: 3.28 µM
  concentration at 8 h: 2.65 µM
  concentration at 10 h: 2.6 µM
  concentration at 12 h: 1.99 µM
  concentration at 36 h: 885 nM
  concentration at 48 h: 465 nM
  concentration at 72 h: 118 nM
  concentration at 96 h: 41.9 nM
240 mg, BI 187004 plasma concentrations, gMean, 240 mg single oral, planned time 24 h
  concentration at 24 h: 2130 nM
240 mg, C24 gMean (%gCV), 240 mg single oral dose
  concentration at 24 h: 2130 nM
360 mg
  AUC(0-inf): 191 µM·h
  AUC(0-t): 135 µM·h
  Cmax: 13.4 µM
  Tmax: 1 h
  Vd/F: 110 L
  half-life: 834 min
[2]
  concentration at 6 h: 10.2 µM
  concentration at 8 h: 9.51 µM
  concentration at 12 h: 6.08 µM
[3]
  concentration at 0.5 h: 16.8 µM
  concentration at 1 h: 18.4 µM
  concentration at 1.5 h: 15.9 µM
  concentration at 2 h: 14.5 µM
  concentration at 2.5 h: 14.6 µM
  concentration at 3 h: 12.9 µM
  concentration at 4 h: 12.2 µM
  concentration at 5 h: 9.63 µM
  concentration at 6 h: 10.2 µM
  concentration at 8 h: 9.51 µM
  concentration at 10 h: 7.68 µM
  concentration at 12 h: 6.08 µM
  concentration at 36 h: 1990 nM
  concentration at 48 h: 1470 nM
  concentration at 72 h: 516 nM
  concentration at 96 h: 174 nM
360 mg, BI 187004 plasma concentrations, Max, 360 mg single oral, planned time 24 h
  concentration at 24 h: 4740 nM
[4]
  concentration at 0.5 h: 11.5 µM
  concentration at 1 h: 13.1 µM
  concentration at 1.5 h: 11.5 µM
  concentration at 2 h: 10.9 µM
  concentration at 2.5 h: 10.3 µM
  concentration at 3 h: 9.36 µM
  concentration at 4 h: 9.59 µM
  concentration at 5 h: 7.55 µM
  concentration at 6 h: 7.25 µM
  concentration at 8 h: 6.85 µM
  concentration at 10 h: 5.5 µM
  concentration at 12 h: 4.83 µM
  concentration at 36 h: 1480 nM
  concentration at 48 h: 898 nM
  concentration at 72 h: 301 nM
  concentration at 96 h: 95 nM
360 mg, BI 187004 plasma concentrations, Mean, 360 mg single oral, planned time 24 h
  concentration at 24 h: 2840 nM
[5]
  concentration at 0.5 h: 11.6 µM
  concentration at 1 h: 13.3 µM
  concentration at 1.5 h: 11.6 µM
  concentration at 2 h: 10.8 µM
  concentration at 2.5 h: 10.2 µM
  concentration at 3 h: 9.34 µM
  concentration at 4 h: 10.3 µM
  concentration at 5 h: 7.87 µM
  concentration at 6 h: 6.45 µM
  concentration at 8 h: 6.27 µM
  concentration at 10 h: 5.62 µM
  concentration at 12 h: 4.63 µM
  concentration at 36 h: 1490 nM
  concentration at 48 h: 869 nM
  concentration at 72 h: 281 nM
  concentration at 96 h: 81.6 nM
360 mg, BI 187004 plasma concentrations, Median, 360 mg single oral, planned time 24 h
  concentration at 24 h: 2660 nM
[6]
  concentration at 0.5 h: 5.8 µM
  concentration at 1 h: 7.17 µM
  concentration at 1.5 h: 6.45 µM
  concentration at 2 h: 6.66 µM
  concentration at 2.5 h: 5.66 µM
  concentration at 3 h: 6.3 µM
  concentration at 4 h: 5.67 µM
  concentration at 5 h: 4.81 µM
  concentration at 6 h: 5.79 µM
  concentration at 8 h: 5.06 µM
  concentration at 10 h: 3.36 µM
  concentration at 12 h: 3.78 µM
  concentration at 36 h: 830 nM
  concentration at 48 h: 375 nM
  concentration at 72 h: 69.1 nM
  concentration at 96 h: 16.8 nM
360 mg, BI 187004 plasma concentrations, Min, 360 mg single oral, planned time 24 h
  concentration at 24 h: 1790 nM
[7]
  concentration at 0.5 h: 10.8 µM
  concentration at 1 h: 12.6 µM
  concentration at 1.5 h: 11.1 µM
  concentration at 2 h: 10.6 µM
  concentration at 2.5 h: 9.71 µM
  concentration at 3 h: 9.14 µM
  concentration at 4 h: 9.32 µM
  concentration at 5 h: 7.36 µM
  concentration at 6 h: 7.11 µM
  concentration at 8 h: 6.71 µM
  concentration at 10 h: 5.3 µM
  concentration at 12 h: 4.78 µM
  concentration at 36 h: 1410 nM
  concentration at 48 h: 814 nM
  concentration at 72 h: 246 nM
  concentration at 96 h: 72.3 nM
360 mg, BI 187004 plasma concentrations, gMean, 360 mg single oral, planned time 24 h
  concentration at 24 h: 2690 nM
360 mg, C24 gMean (%gCV), 360 mg single oral dose
  concentration at 24 h: 2690 nM
